For orientation: Emax means the maximal effect, on the per cent scale that the assay sets. By EC50 is commonly meant the concentration at which the effect is half-maximal.

The target of the assay is T1, human mAChR M4 (Homo sapiens, UniProt P08173).
T1 construct: expressed in transfected cells
T1 sequence (P08173 1-479): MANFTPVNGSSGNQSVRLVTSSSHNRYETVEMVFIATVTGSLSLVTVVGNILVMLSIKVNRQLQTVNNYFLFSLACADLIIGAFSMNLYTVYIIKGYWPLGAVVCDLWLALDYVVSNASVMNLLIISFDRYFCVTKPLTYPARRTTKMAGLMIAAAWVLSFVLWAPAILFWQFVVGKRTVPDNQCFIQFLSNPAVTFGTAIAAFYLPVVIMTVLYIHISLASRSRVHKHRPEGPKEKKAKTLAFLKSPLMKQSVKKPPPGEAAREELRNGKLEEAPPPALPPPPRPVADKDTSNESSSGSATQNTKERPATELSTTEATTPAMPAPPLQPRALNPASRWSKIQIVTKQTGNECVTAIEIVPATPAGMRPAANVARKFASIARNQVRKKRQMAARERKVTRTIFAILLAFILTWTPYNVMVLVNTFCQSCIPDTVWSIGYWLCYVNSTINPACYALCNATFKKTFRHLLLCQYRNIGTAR
As to the kind of experiment: mAChR M4 cell-based functional assay (calcium mobilization, CHO-K1 hM4-Gqi5 cells). To be noted: for Emax at 30 µM: CHO-K1, % ACh maximum at 30 μM, human M4; for EC50: positive allosteric modulator activity, increase in the EC20 acetylcholine response, CHO-K1 hM4-Gqi5 cells, read-out: Human M4 EC50; for Emax: CHO-K1. The method in brief: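 Fluorescent calcium read-out (Fluo-4 AM, FDSS, 1 Hz) in hM4-Gqi5 CHO-K1 cells, 11-point 1:3 compound series. Agonism scored on compound addition, PAM activity as increase of the 144 s EC20 acetylcholine response, antagonism as decrease of the 230 s EC80 response; four-parameter logistic fits give EC50 and Emax.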
Background: A change in cytosolic calcium serves as a functional read-out for many receptors and channels.

Molecules are shown by their SMILES.

As for `Cc1cc(C(=O)N2CC(F)C2)nnc1N1CCc2ncc(CC(F)(F)F)cc2C1` [Example 586, (3-fluoroazetidin-1-yl)(5-methyl-6-(3-(2,2,2-trifluoroethyl)-7,8-dihydro-1,6-naphthyridin-6(5H)-yl)pyridazin-3-yl)methanone], the Emax at 30 µM was 99% and the EC50 stood at 176 nM.
Take `Cc1cc(C(=O)N2CCOCC2)nnc1N1CCc2ncc(CC(F)(F)F)cc2C1` [Example 587, (5-methyl-6-(3-(2,2,2-trifluoroethyl)-7,8-dihydro-1,6-naphthyridin-6(5/)-yl)pyridazin-3-yl)(morpholino)methanone]: the Emax at 30 µM stood at 69% and the EC50 worked out at 6540 nM.
On the same counts, the results for `Cc1cc(C(=O)N2CC(C)(O)C2)nnc1N1CCc2ncc(CC(F)(F)F)cc2C1` [Example 588, (3-hydroxy-3-methylazetidin-1-yl)(5-methyl-6-(3-(2,2,2-trifluoroethyl)-7,8-dihydro-1,6-naphthyridin-6(5H)-yl)pyridazin-3-yl)methanone] are 93% and 322 nM.
For `COC1CN(C(=O)c2cc(C)c(N3CCc4ncc(CC(F)(F)F)cc4C3)nn2)C1` [Example 589, (3-methoxyazetidin-1-yl)(5-methyl-6-(3-(2,2,2-trifluoroethyl)-7,8-dihydro-1,6-naphthyridin-6(5H)-yl)pyridazin-3-yl)methanone], the Emax at 30 µM came to 99% and the EC50 is 173 nM.
On the same counts, the results for `Cc1cc(C(=O)NCc2cncs2)nnc1N1CCc2ncc(CC(F)(F)F)cc2C1` [Example 590, 5-methyl-N-(thiazol-5-ylmethyl)-6-(3-(2,2,2-trifluoroethyl)-7,8-dihydro-1,6-naphthyridin-6(5H)-yl)pyridazine-3-carboxamide] are 94% and 41 nM.
Take `O=C1c2cc(Br)c(N3CCc4ncc(C(F)(F)F)cc4C3)nc2OCCN1Cc1ccccc1` [Example 591, 4-benzyl-7-bromo-8-(3-(trifluoromethyl)-7,8-dihydro-1,6-naphthyridin-6(5H)-yl)-3,4-dihydropyrido[3,2-f][1,4]oxazepin-5(2H)-one]: the Emax at 30 µM stood at 56% and the concentration for a half-maximal effect (EC50) is 1990 nM.
Regarding `Cc1cc2c(nc1N1CCc3ncc(C(F)(F)F)cc3C1)OCCN(Cc1ccccc1)C2=O` [Example 592, 4-benzyl-7-methyl-8-(3-(trifluoromethyl)-7,8-dihydro-1,6-naphthyridin-6(5H)-yl)-3,4-dihydropyrido[3,2-f][1,4]oxazepin-5(2H)-one], the Emax at 30 µM was determined as 38% and the EC50 was 292 nM.
Take `Cc1cc(F)ncc1-c1cnc2c(c1)CN(c1nnc(C#N)cc1C)CC2` [Example 593, 6-(3-(6-fluoro-4-methylpyridin-3-yl)-7,8-dihydro-1,6-naphthyridin-6(5H)-yl)-5-methylpyridazine-3-carbonitrile]: the Emax at 30 µM stood at 70% and the EC50 stood at 876 nM.
`Cc1cc(C#N)cnc1N1CCc2ncc(Br)cc2C1` [Example 594, 6-(3-bromo-7,8-dihydro-1,6-naphthyridin-6(5H)-yl)-5-methylnicotinonitrile]: the Emax is 84% and the EC50 turned out to be 132 nM.
Consider `Cc1cc(F)c(F)cc1-c1cnc2c(c1)CN(c1ncc(C#N)cc1C)CC2` [Example 595, 6-(3-(4,5-difluoro-2-methylphenyl)-7,8-dihydro-1,6-naphthyridin-6(5H)-yl)-5-methylnicotinonitrile], for which the Emax at 30 µM came to 38% and the EC50 was found to be 4470 nM.
The matching figures for `Cc1cc(F)c(F)cc1-c1cnc2c(c1)CN(c1nnc(C#N)cc1C)CC2` [Example 596, 6-(3-(4,5-difluoro-2-methylphenyl)-7,8-dihydro-1,6-naphthyridin-6(5H)-yl)-5-methylpyridazine-3-carbonitrile]: 54% and 1880 nM.
On to `Cc1cc(C#N)cnc1N1CCc2ncc(-c3cc(F)cc(F)c3C)cc2C1` [Example 597, 6-(3-(3,5-difluoro-2-methylphenyl)-7,8-dihydro-1,6-naphthyridin-6(5H)-yl)-5-methylnicotinonitrile], for which the Emax at 30 µM amounted to 69% and the EC50 was determined as 2870 nM.
The matching figures for `Cc1cc(C#N)nnc1N1CCc2ncc(Nc3ccncc3F)cc2C1` [Example 598, 6-(3-((3-fluoropyridin-4-yl)amino)-7,8-dihydro-1,6-naphthyridin-6(5H)-yl)-5-methylpyridazine-3-carbonitrile]: 98% and 25 nM.
With `Cc1cc(C#N)cnc1N1CCc2ncc(Nc3ccncc3F)cc2C1` [Example 599, 6-(3-((3-fluoropyridin-4-yl)amino)-7,8-dihydro-1,6-naphthyridin-6(5H)-yl)-5-methylnicotinonitrile], the Emax at 30 µM amounted to 96% and the EC50 stood at 7 nM.
For `[2H]C1([2H])Cc2ncc(Nc3cc(C)ncc3F)cc2C([2H])([2H])N1c1nnc(C#N)c(C)c1C` [Example 600, 6-(3-((5-fluoro-2-methylpyridin-4-yl)amino)-7,8-dihydro-1,6-naphthyridin-6(5H)-yl-5,5,7,7-d4)-4,5-dimethylpyridazine-3-carbonitrile], the Emax at 30 µM was 92% and the concentration giving a half-maximal response (EC50) came out at 26 nM.
On to `[2H]C1([2H])Cc2ncc(Nc3cc(C)ncc3F)cc2C([2H])([2H])N1c1ncc(C#N)cc1C` [Example 601, 6-(3-((5-fluoro-2-methylpyridin-4-yl)amino)-7,8-dihydro-1,6-naphthyridin-6(5H)-yl-5,5,7,7-d4)-5-methylnicotinonitrile], for which the maximum response (Emax) at 30 µM is 95% and the EC50 was determined as 7 nM.
As for `[2H]C1([2H])Cc2ncc(Nc3cccnc3C)cc2C([2H])([2H])N1c1ncc(C#N)cc1C` [Example 602, 5-methyl-6-(3-((2-methylpyridin-3-yl)amino)-7,8-dihydro-1,6-naphthyridin-6(5H)-yl-5,5,7,7-d4)nicotinonitrile], the Emax at 30 µM was determined as 92% and the EC50 is 35 nM.
For the compound `[2H]C1([2H])Cc2ncc(Nc3cc(C)ncc3F)cc2C([2H])([2H])N1c1nnc(C#N)cc1C` [Example 603, 6-(3-((5-fluoro-2-methylpyridin-4-yl)amino)-7,8-dihydro-1,6-naphthyridin-6(5H)-yl-5,5,7,7-d4)-5-methylpyridazine-3-carbonitrile], the Emax at 30 µM came to 97% and the EC50 came out at 28 nM.
For the compound `[2H]C1([2H])Cc2ncc(Nc3cccnc3C)cc2C([2H])([2H])N1c1nnc(C#N)cc1C` [Example 604, 5-methyl-6-(3-((2-methylpyridin-3-yl)amino)-7,8-dihydro-1,6-naphthyridin-6(5H)-yl-5,5,7,7-d4)pyridazine-3-carbonitrile], the Emax at 30 µM came to 83% and the EC50 was found to be 158 nM.
Turning to `Cc1ccc2c(n1)CCN(c1nnc(C#N)cc1C)C2` [Example 605, 5-methyl-6-(2-methyl-7,8-dihydro-1,6-naphthyridin-6(5H)-yl)pyridazine-3-carbonitrile], the Emax turned out to be 106% and the EC50 came out at 1440 nM.
As for `[2H]C1([2H])Cc2ncc(Nc3ccncc3F)cc2C([2H])([2H])N1c1nnc(C#N)cc1C` [Example 606, 6-(3-((3-fluoropyridin-4-yl)amino)-7,8-dihydro-1,6-naphthyridin-6(5H)-yl-5,5,7,7-d4)-5-methylpyridazine-3-carbonitrile], the maximal effect (Emax) at 30 µM is 90% and the EC50 worked out at 10 nM.
With `[2H]C1([2H])Cc2ncc(Nc3ccncc3C)cc2C([2H])([2H])N1c1nnc(C#N)cc1C` [Example 607, 5-methyl-6-(3-((3-methylpyridin-4-yl)amino)-7,8-dihydro-1,6-naphthyridin-6(5H)-yl-5,5,7,7-d4)pyridazine-3-carbonitrile], the Emax at 30 µM came out at 70% and the EC50 is 906 nM.
In the case of `[2H]C1([2H])Cc2ncc(Nc3ccncc3F)cc2C([2H])([2H])N1c1nnc(C#N)c(C)c1C` [Example 608, 6-(3-((3-fluoropyridin-4-yl)amino)-7,8-dihydro-1,6-naphthyridin-6(5H)-yl-5,5,7,7-d4)-4,5-dimethylpyridazine-3-carbonitrile], the Emax at 30 µM came to 83% and the EC50 was determined as 4 nM.
On the same counts, the results for `[2H]C1([2H])Cc2ncc(Nc3ccncc3C)cc2C([2H])([2H])N1c1nnc(C#N)c(C)c1C` [Example 609, 4,5-dimethyl-6-(3-((3-methylpyridin-4-yl)amino)-7,8-dihydro-1,6-naphthyridin-6(5H)-yl-5,5,7,7-d4)pyridazine-3-carbonitrile] are 56% and 753 nM.
As for `[2H]C1([2H])Cc2ncc(Nc3ccncc3C)cc2C([2H])([2H])N1c1ncc(C#N)cc1C` [Example 610, 5-methyl-6-(3-((3-methylpyridin-4-yl)amino)-7,8-dihydro-1,6-naphthyridin-6(5H)-yl-5,5,7,7-d4)nicotinonitrile], the Emax at 30 µM worked out at 70% and the EC50 amounted to 59 nM.

Values taken from patent US20250230155A1 (Vanderbilt University, priority 2021, published 2025).
